{"source": "patent US8481528B2", "about": "(Hoffmann-La Roche Inc., priority 2010, dated 2013)", "note": "Structures can show the parent of a compound that is named as a salt."}
{"target": "T1, human V1a receptor (Homo sapiens, UniProt P37288)", "T1 construct": "expressed in transfected cells; host or cells: HEK293 cells, transiently transfected; cell membranes", "T1 sequence (P37288 whole entry)": "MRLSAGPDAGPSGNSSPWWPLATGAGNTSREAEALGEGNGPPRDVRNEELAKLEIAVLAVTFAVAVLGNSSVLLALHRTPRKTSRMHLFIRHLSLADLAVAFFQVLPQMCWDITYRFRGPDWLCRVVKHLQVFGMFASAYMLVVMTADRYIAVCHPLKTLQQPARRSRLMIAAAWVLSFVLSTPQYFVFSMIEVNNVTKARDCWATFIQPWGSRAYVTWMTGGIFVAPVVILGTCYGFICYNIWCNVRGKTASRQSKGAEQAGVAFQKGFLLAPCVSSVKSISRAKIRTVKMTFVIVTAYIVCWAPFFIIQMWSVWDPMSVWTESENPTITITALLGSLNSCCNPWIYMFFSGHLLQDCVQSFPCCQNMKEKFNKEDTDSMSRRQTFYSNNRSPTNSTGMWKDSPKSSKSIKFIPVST", "assay": "human V1a receptor binding (3H-Vasopressin SPA, HEK293 membranes)", "details": "not given", "description": "(§1) The human V1a receptor was cloned by RT-PCR from total human liver RNA. The coding sequence was subcloned in an expression vector after sequencing to confirm the identity of the amplified sequence. […] Cell membranes were prepared from HEK293 cells transiently transfected with the expression vector and grown in 20 liter fermenters with the following protocol.\n(§2) 50 g of cells are resuspended in 30 ml freshly prepared ice cold Lysis buffer (50 mM HEPES, 1 mM EDTA, 10 mM magnesium dichloride adjusted to pH=7.4+complete cocktail of protease inhibitor (Roche Diagnostics)). Homogenized with Polytron for 1 min and sonicated on ice for 2×2 minutes at 80% intensity (Vibracell sonicator). The preparation is centrifuged 20 min at 500 g at 4° C., the pellet is discarded and the supernatant centrifuged 1 hour at 43′000 g at 4° C. (19'000 rpm). The pellet is resuspended in 12.5 ml Lysis buffer+12.5 ml sucrose 20% and homogenized using a Polytron for 1-2 min. The protein concentration is determined by the Bradford method and aliquots are stored at −80° C. until use. For binding studies 60 mg Yttrium silicate SPA beads (Amersham®) are mixed with an aliquot of membrane in binding buffer (50 mM Tris, 120 mM sodium chloride, 5 mM potassium chloride, 2 mM calcium dichloride, 10 mM magnesium dichloride) for 15 minutes with mixing. 50 μl of bead/membrane mixture is then added to each well of a 96 well plate, followed by 50 μl of 4 nM 3H-Vasopressin (American Radiolabeled Chemicals). For total binding measurement 100 μl of binding buffer are added to the respective wells, for non-specific binding 100 μl of 8.4 mM cold vasopressin and for compound testing 100 μl of a serial dilution of each compound in 2% dimethyl sulfoxide. The plate is incubated 1 h at room temperature, centrifuged 1 min at 1000 g and counted on a Packard Top-Count. Non-specific binding counts are subtracted from each well and data is normalized to the maximum specific binding set at 100%. To calculate an IC50 the curve is fitted using a non-linear regression model (XLfit) and the Ki is calculated using the Cheng-Prussoff equation.", "units": {"Ki": "nM"}}
{"smiles": "CN1Cc2cc(Cl)ccc2-n2c(nnc2[C@H]2CC[C@@H](c3noc4ccccc43)CC2)C1", "note": "[Example 4, cis-1-(4-Benzo[d]isoxazol-3-yl-cyclohexyl)-8-chloro-5-methyl-5,6-dihydro-4H-2,3,5,10b-tetraaza-benzo[e]azulene]", "Ki": 7.59}
{"smiles": "CN1Cc2cc(Cl)ccc2-n2c(nnc2[C@H]2CC[C@H](c3noc4ccccc43)CC2)C1", "note": "[Example 6, trans-1-(4-Benzo[d]isoxazol-3-yl-cyclohexyl)-8-chloro-5-methyl-5,6-dihydro-4H-2,3,5,10b-tetraaza-benzo[e]azulene]", "Ki": 0.794}
{"smiles": "CC(C)(C)OC(=O)N1Cc2cc(Cl)ccc2-n2c(nnc2[C@H]2CC[C@H](c3noc4ncccc43)CC2)C1", "note": "[Example 16, trans-8-Chloro-1-(4-isoxazolo[5,4-b]pyridin-3-yl-cyclohexyl)-4H,6H-2,3,5,10b-tetraaza-benzo[e]azulene-5-carboxylic acid tert-butyl ester]", "Ki": 3.63}
{"smiles": "Clc1ccc2c(c1)CNCc1nnc([C@H]3CC[C@H](c4nsc5ccccc54)CC3)n1-2", "note": "[Example 20, trans-1-(4-Benzo[d]isothiazol-3-yl-cyclohexyl)-8-chloro-5,6-dihydro-4H-2,3,5,10b-tetraaza-benzo[e]azulene hydrochloride]", "Ki": 1.51}
{"smiles": "Clc1ccc2c(c1)CN(C1CCC1)Cc1nnc([C@H]3CC[C@H](c4nsc5ccccc54)CC3)n1-2", "note": "[Example 22, trans-1-(4-Benzo[d]isothiazol-3-yl-cyclohexyl)-8-chloro-5-cyclobutyl-5,6-dihydro-4H-2,3,5,10b-tetraaza-benzo[e]azulene]", "Ki": 0.302}
{"smiles": "CC(=O)N1Cc2cc(Cl)ccc2-n2c(nnc2[C@H]2CC[C@H](c3nsc4ccccc43)CC2)C1", "note": "[Example 24, trans-1-[1-(4-Benzo[d]isothiazol-3-yl-cyclohexyl)-8-chloro-4H,6H-2,3,5,10b-tetraaza-benzo[e]azulen-5-yl]-ethanone]", "Ki": 0.398}
{"target": "T1, human V1a receptor", "assay": "human V1a receptor binding (3H-Vasopressin SPA, HEK293 membranes)", "details": "3H-Vasopressin displacement, membranes of HEK293 cells transiently transfected with human V1a receptor; Ki by Cheng-Prusoff; read-out: pKi (hV1a) (converted)", "description": "as §1, §2", "units": {"Ki": "nM"}}
{"smiles": "CC(C)(C)OC(=O)N1Cc2cc(Cl)ccc2-n2c(nnc2[C@H]2CC[C@@H](c3noc4ccccc43)CC2)C1", "note": "[Example 1, cis-1-(4-Benzo[d]isoxazol-3-yl-cyclohexyl)-8-chloro-4H,6H-2,3,5,10b-tetraaza-benzo[e]azulene-5-carboxylic acid tert-butyl ester]", "Ki": 8.91}
{"smiles": "CC(C)(C)OC(=O)N1Cc2cc(Cl)ccc2-n2c(nnc2[C@H]2CC[C@H](c3noc4ccccc43)CC2)C1", "note": "[Example 2, trans-1-(4-Benzo[d]isoxazol-3-yl-cyclohexyl)-8-chloro-4H,6H-2,3,5,10b-tetraaza-benzo[e]azulene-5-carboxylic acid tert-butyl ester]", "Ki": 4.79}
{"smiles": "Clc1ccc2c(c1)CNCc1nnc([C@H]3CC[C@@H](c4noc5ccccc54)CC3)n1-2", "note": "[Example 3, cis-1-(4-Benzo[d]isoxazol-3-yl-cyclohexyl)-8-chloro-5,6-dihydro-4H-2,3,5,10b-tetraaza-benzo[e]azulene hydrochloride]", "Ki": 11.2}
{"smiles": "Clc1ccc2c(c1)CNCc1nnc([C@H]3CC[C@H](c4noc5ccccc54)CC3)n1-2", "note": "[Example 5, trans-1-(4-Benzo[d]isoxazol-3-yl-cyclohexyl)-8-chloro-5,6-dihydro-4H-2,3,5,10b-tetraaza-benzo[e]azulene hydrochloride]", "Ki": 0.891}
{"smiles": "CC(C)(C)OC(=O)N1Cc2cc(Cl)ccc2-n2c(nnc2[C@H]2CC[C@H](c3noc4cc(F)ccc43)CC2)C1", "note": "[Example 7, trans-8-Chloro-[4-(6-fluoro-benzo[d]isoxazol-3-yl)-cyclohexyl]-4H,6H-2,3,5,10b-tetraaza-benzo[e]azulene-5-carboxylic acid tert-butyl ester]", "Ki": 4.79}
{"smiles": "Fc1ccc2c(c1)onc2[C@H]1CC[C@H](c2nnc3n2-c2ccc(Cl)cc2CNC3)CC1", "note": "[Example 8, trans-8-Chloro-1-[4-(6-fluoro-benzo[d]isoxazol-3-yl)-cyclohexyl]-5,6-dihydro-4H-2,3,5,10b-tetraaza-benzo[e]azulene hydrochloride]", "Ki": 1.51}
{"smiles": "CN1Cc2cc(Cl)ccc2-n2c(nnc2[C@H]2CC[C@H](c3noc4cc(F)ccc43)CC2)C1", "note": "[Example 9, trans-8-Chloro-1-[4-(6-fluoro-benzo[d]isoxazol-3-yl)-cyclohexyl]-5-methyl-5,6-dihydro-4H-2,3,5,10b-tetraaza-benzo[e]azulene]", "Ki": 1.2}
{"smiles": "CC(C)(C)OC(=O)N1Cc2cc(Cl)ccc2-n2c(nnc2[C@H]2CC[C@H](c3noc4ccc(F)cc43)CC2)C1", "note": "[Example 10, trans-8-Chloro-1-[4-(5-fluoro-benzo[d]isoxazol-3-yl)-cyclohexyl]-4H,6H-2,3,5,10b-tetraaza-benzo[e]azulene-5-carboxylic acid tert-butyl ester]", "Ki": 3.24}
{"smiles": "Fc1ccc2onc([C@H]3CC[C@H](c4nnc5n4-c4ccc(Cl)cc4CNC5)CC3)c2c1", "note": "[Example 11, trans-8-Chloro-1-[4-(5-fluoro-benzo[d]isoxazol-3-yl)-cyclohexyl]-5,6-dihydro-4H-2,3,5,10b-tetraaza-benzo[e]azulene hydrochloride]", "Ki": 2.09}
{"smiles": "CN1Cc2cc(Cl)ccc2-n2c(nnc2[C@H]2CC[C@H](c3noc4ccc(F)cc43)CC2)C1", "note": "[Example 12, trans-8-Chloro-1-[4-(5-fluoro-benzo[d]isoxazol-3-yl)-cyclohexyl]-5-methyl-5,6-dihydro-4H-2,3,5,10b-tetraaza-benzo[e]azulene]", "Ki": 0.794}
{"smiles": "CC(C)(C)OC(=O)N1Cc2cc(Cl)ccc2-n2c(nnc2[C@H]2CC[C@H](c3noc4cccnc43)CC2)C1", "note": "[Example 13, trans-8-Chloro-1-(4-isoxazolo[4,5-b]pyridin-3-yl-cyclohexyl)-4H,6H-2,3,5,10b-tetraaza-benzo[e]azulene-5-carboxylic acid tert-butyl ester]", "Ki": 2.69}
{"smiles": "Clc1ccc2c(c1)CNCc1nnc([C@H]3CC[C@H](c4noc5cccnc54)CC3)n1-2", "note": "[Example 14, trans-8-Chloro-1-(4-isoxazolo[4,5-b]pyridin-3-yl-cyclohexyl)-5,6-dihydro-4H-2,3,5,10b-tetraaza-benzo[e]azulene hydrochloride]", "Ki": 2.19}
{"smiles": "CN1Cc2cc(Cl)ccc2-n2c(nnc2[C@H]2CC[C@H](c3noc4cccnc43)CC2)C1", "note": "[Example 15, trans-8-Chloro-1-(4-isoxazolo[4,5-b]pyridin-3-yl-cyclohexyl)-5-methyl-5,6-dihydro-4H-2,3,5,10b-tetraaza-benzo[e]azulene]", "Ki": 0.708}
{"smiles": "Clc1ccc2c(c1)CNCc1nnc([C@H]3CC[C@H](c4noc5ncccc54)CC3)n1-2", "note": "[Example 17, trans-8-Chloro-1-(4-isoxazolo[5,4-b]pyridin-3-yl-cyclohexyl)-5,6-dihydro-4H-2,3,5,10b-tetraaza-benzo[e]azulene hydrochloride]", "Ki": 5.25}
{"smiles": "CN1Cc2cc(Cl)ccc2-n2c(nnc2[C@H]2CC[C@H](c3noc4ncccc43)CC2)C1", "note": "[Example 18, trans-8-Chloro-1-(4-isoxazolo[5,4-b]pyridin-3-yl-cyclohexyl)-5-methyl-5,6-dihydro-4H-2,3,5,10b-tetraaza-benzo[e]azulene]", "Ki": 0.891}
{"smiles": "CC(C)(C)OC(=O)N1Cc2cc(Cl)ccc2-n2c(nnc2[C@H]2CC[C@H](c3nsc4ccccc43)CC2)C1", "note": "[Example 19, trans-1-(4-Benzo[d]isothiazol-3-yl-cyclohexyl)-8-chloro-4H,6H-2,3,5,10b-tetraaza-benzo[e]azulene-5-carboxylic acid tert-butyl ester]", "Ki": 7.59}
{"smiles": "CN1Cc2cc(Cl)ccc2-n2c(nnc2[C@H]2CC[C@H](c3nsc4ccccc43)CC2)C1", "note": "[Example 21, trans-1-(4-Benzo[d]isothiazol-3-yl-cyclohexyl)-8-chloro-5-methyl-5,6-dihydro-4H-2,3,5,10b-tetraaza-benzo[e]azulene]", "Ki": 1.58}
{"smiles": "CNCCN1Cc2cc(Cl)ccc2-n2c(nnc2[C@H]2CC[C@H](c3nsc4ccccc43)CC2)C1", "note": "[Example 23, trans-{2-[1-(4-Benzo[d]isothiazol-3-yl-cyclohexyl)-8-chloro-4H,6H-2,3,5,10b-tetraaza-benzo[e]azulen-5-yl]-ethyl}-methyl-amine]", "Ki": 0.603}
{"smiles": "CN(C)CC(=O)N1Cc2cc(Cl)ccc2-n2c(nnc2[C@H]2CC[C@H](c3nsc4ccccc43)CC2)C1", "note": "[Example 25, trans-1-[1-(4-Benzo[d]isothiazol-3-yl-cyclohexyl)-8-chloro-4H,6H-2,3,5,10b-tetraaza-benzo[e]azulen-5-yl]-2-dimethylamino-ethanone]", "Ki": 0.302}
{"smiles": "CS(=O)(=O)N1Cc2cc(Cl)ccc2-n2c(nnc2[C@H]2CC[C@H](c3nsc4ccccc43)CC2)C1", "note": "[Example 26, trans-1-(4-Benzo[d]isothiazol-3-yl-cyclohexyl)-8-chloro-5-methanesulfonyl-5,6-dihydro-4H-2,3,5,10b-tetraaza-benzo[e]azulene]", "Ki": 0.302}
